Measured values taken from patent publication US7794936B1, “Using thymidine analogs to improve replication in an expanded genetic alphabet” (priority 2006, dated 2010).

How the values were obtained:
[1] = molecular target: T1, KlenTaq polymerase (Thermus aquaticus, UniProt P19821); test: Running-start primer extension reactions, incorporation opposite template isoG; assay type: biochemical; details: template T-1, primer P-1, 72° C.; for incorporation / misincorporation opposite isoG (gel band, in words): time points 0.5, 1.0, 3.0 min
T1 construct: The “Klenow” fragment of Taq polymerase (Titanuim™ Taq) was purchased from BD Biosciences; purchased BD Biosciences (Mountain View, Calif.)
T1 sequence (P19821 281-832 limits assumed): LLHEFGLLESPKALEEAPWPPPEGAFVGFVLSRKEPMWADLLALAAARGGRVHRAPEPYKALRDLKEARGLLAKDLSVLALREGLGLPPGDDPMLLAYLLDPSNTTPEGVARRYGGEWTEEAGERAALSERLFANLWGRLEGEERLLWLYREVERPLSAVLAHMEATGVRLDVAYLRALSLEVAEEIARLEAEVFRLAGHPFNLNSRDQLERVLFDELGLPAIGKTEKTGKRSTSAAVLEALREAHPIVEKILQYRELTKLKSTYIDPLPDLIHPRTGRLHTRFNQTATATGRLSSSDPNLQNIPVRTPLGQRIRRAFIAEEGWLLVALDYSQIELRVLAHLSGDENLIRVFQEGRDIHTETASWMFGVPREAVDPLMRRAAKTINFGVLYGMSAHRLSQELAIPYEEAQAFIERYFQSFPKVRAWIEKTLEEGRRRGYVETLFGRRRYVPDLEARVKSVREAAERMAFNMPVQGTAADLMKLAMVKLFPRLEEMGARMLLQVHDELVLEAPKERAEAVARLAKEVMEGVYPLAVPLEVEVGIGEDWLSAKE
Description: (§1) The “Klenow” fragment of Taq polymerase (Titanuim™ Taq) was purchased from BD Biosciences (Mountain View, Calif.). As Titanium™ Taq is a “hot start” enzyme, the enzyme was heated to 95° C. for 2 minutes, followed by rapid cooling to ambient temperature prior to any primer extension reactions. Similarly, all polymerase chain reactions included an initial 2 minute 95° C. denaturation cycle.
In a typical primer extension reaction (25 μL total volume), 5′-^32P labeled primer (P-1, 25 pmol) and template (T-1, 30 pmol) were mixed with buffer (10 mM bis-trispropane-HCl pH 9.1, 5 mM MgCl2, 40 mM potassium acetate, 0.1 mg/ml bovine serum albumin), heated (95° C., 5 min), and cooled to room temperature over 1 hour. Polymerase (1 unit) was added, and the mixture again heated (72° C., 10 sec). Each PCR was initiated by adding the appropriate dNTPs (100 μM final concentration). Aliquots (2 μL) were removed from the mixture at time intervals, diluted into a PAGE loading/quench buffer (2 μL, 20 mM EDTA in formamide), heated (95° C., 5 min) and resolved by electrophoresis using a 20% PAGE (7 M urea). The gel was analyzed by phosphorimager. To enhance reproducibility, master mixes of the primer/template in buffer were prepared in large scale (100 μL).
Running-start primer extension reactions were performed with KlenTaq to determine the ability of the enzyme to incorporate either TTP or 2-thioTTP opposite isoG. For each reaction, the polymerase was challenged to misincorporate the respective triphosphate opposite the isoG residue at position 26 in the template (T-1), 3 nucleotides downstream of the primer (Pf-1) terminus. Reactions were run in parallel, one containing dGTP and TTP, one containing dGTP and 2-thioTTP, one containing dGTP and isoCTP (positive control), and one containing only dGTP (negative control). Aliquots of each reaction were quenched at various times and analyzed by PAGE on a 20% polyacrylamide gel.

[2] = molecular target: T1, KlenTaq polymerase; test: Direct nucleotide competition, single-turnover primer extension with APM gel separation; assay type: biochemical
Description: as §1
Single turnover primer extension reactions were performed by annealing 5′-^32P labeled primer (P-2f, 1 pmol) and template (T-2 or T-3, 1 pmol) in the appropriate buffer described above. Polymerase (1 pmol) was added, and the mixture was heated (72° C., 10 sec). The reaction was initiated by adding isoCTP (100 μM) and either 2-thioTTP (100 μM) or TTP (100 μM) in the presence of unlabeled trap DNA (P-2f, 100 pmol, T-2, 100 pmol). The reaction was quenched (20 mM EDTA in HCONH2) after 20 sec, and the samples resolved by 20% PAGE (7 M urea) containing p-acrylamidophenylmercury chloride (APM, 1 μg/mL). […] APM was synthesized as described [Igl88].
In two parallel reactions, one containing equal concentrations of 2-thioTTP and TTP, and one containing equal concentrations of 2-thioTTP and isoCTP, KlenTaq polymerase was challenged to choose a nucleotide to incorporate opposite isoG. […] The gel was analyzed via radioimaging.

[3] = molecular target: T1, KlenTaq polymerase; test: PCR amplification using 2-thioTTP as substitute for TTP (30 rounds, template T-3); assay type: biochemical; details: 30 rounds of PCR, dATP, dCTP, dGTP plus thymidine analog, 2% agarose gel
Description: as §1
Amplicons testing the substitution of 2-thioTTP for TTP in a PCR were generated as above, using primers P-2f and P-2r (1 pmol each), template T-3 (6×10^4 molecules), and either all four natural dNTPs (100 μM each) or by substituting 2-thioTTP for TTP.
After showing that 2-thioTTP is misincorporated less frequently than TTP opposite isoG residues, we then established that 2-thioTTP works in a PCR amplification. For this purpose, replicate polymerase chain reactions with KlenTaq polymerase were performed using the PCR replicon consisting of primers P-2f and P-2r and template T-3. Three reactions were run in parallel, one containing the four natural dNTPs (positive control), one containing dCTP, dGTP, dATP, and 2-thioTTP, and one without TTP (negative control). Each amplification was cycled for 30 rounds, and the products were analyzed by electrophoresis on a 2% agarose gel.

[4] = molecular target: T1, KlenTaq polymerase; test: PCR fidelity assay of isoC:isoG base pair replication (acid cleavage at isoC); assay type: biochemical; details: six letter PCR, template T-2, 30 cycles, fit to Y=100×(½+f/2)^x
Description: as §1
For each 6-letter nucleotide system investigated, seven parallel PCR mixtures were cycled (30 rounds, 95° C. for 45 sec. then 45° C. for 45 sec. then 72° C. for 1.5 min) with the same amounts of primers P-2f (^32P labeled) and P-2r (1 pmol; 6×10^11 molecules) and varying concentrations of template T2. […] As each 10 fold dilution in template was equivalent to ca. 3.3 rounds of amplification, the fidelity of the isoC:isoG replication could be monitored on a round-by-round basis, with each amplicon requiring a different number of exponential amplifications to consume the primers (Table 2.)
Following amplification, the mixtures were treated with an equal volume of acetic acid (0.1 mM), and heated (95° C., 30 min), a procedure that depyrimidinylates the iso-cytidines that have been incorporated. […] The NH4OH was allowed to evaporate, and the mixtures diluted in 2 volumes of gel loading buffer (98% formamide, 10 mM EDTA, 1 mg/mL bromophenol blue, 1 mg/mL xylene cyanol FF) and analyzed by denaturing PAGE (17%). […]

[5] = test system: 2-aminoadenine; details: cited from earlier work

SMILES	incorporation opposite isoG, isoCTP relative to TTP ([1]; after one and three minutes of incubation, dNTPs 100 μM)	incorporation / misincorporation opposite isoG (gel band, in words) [1]	substrate preference for incorporation opposite adenosine ([2]; 2-thioTTP and TTP in competition, template T-3)	extended product resulting from incorporation of 2-thioTTP opposite isoG ([2]; equal concentrations (100 μM) of 2-thioTTP and either TTP or isoCTP, template T-2, primer P-2f, 20 sec)	amount of PCR product [3]	fidelity-per-round of PCR for isoC:isoG base pair [4] [%]	decrease in Tm by pair with 2-aminoadenine ([5]; 20 nucleotide duplex) [°C]	destabilization of the duplex (ΔG) by pair with 2-aminoadenine ([5]; nucleobase pair between 2-thioT and 2-aminoadenine) [kcal/mol]
Nc1nc(=O)ccn1[C@H]1C[C@H](O)[C@@H](COP(=O)(O)OP(=O)(O)OP(=O)(O)O)O1 [isoCTP, 2′-deoxy-iso-cytidine triphosphate]	approximately 2 fold	incorporated most efficiently						
Cc1cn([C@H]2C[C@H](O)[C@@H](COP(=O)(O)OP(=O)(O)OP(=O)(O)O)O2)c(=S)[nH]c1=O [2-thioTTP, 2-thiothymidine triphosphate]		misincorporated very little	prefers 2-thioTTP over TTP	less than 1%	comparable amounts of product	98		
Cc1cn([C@H]2C[C@H](O)[C@@H](CO)O2)c(=S)[nH]c1=O [2-thioT, 2-thiothymidine]							2.4	0.8
